{"source": "patent USRE36744E", "about": "“Nasal administration of benzodiazepine hypnotics” (Ribogene, Inc., priority 1994, dated 2000)", "key": {"[1]": {"experiment": "Comparative oral versus nasal pharmacokinetics of flurazepam in dogs (plasma, GC assay)", "format": "in vivo, beagle dogs", "experimental": "The efficacy of oral versus nasal administration was examined using the methodology of Example 2.\nOral Administration Studies: Fifteen mg of flurazepam HCl solution was given to each dog with 50 ml of water. […] The plasma samples were stored frozen until GC assay for flurazepam.\nNasal Administration Studies: One hundred and twenty milligrams of flurazepam HCl powder was dissolved in 4 ml of distilled water. […] Air bubbles generated during mixing were eliminated by centrifugation. The pH of the solution was 1.82.\nFlurazepam solution was sprayed into both nostrils of the dogs. The dose given to the dogs was 14.5, 12.4, 12.1 and 12.5 mg as flurazepam HCl. Blood sampling times were same as in the oral study. The plasma samples were frozen until GC assay for flurazepam.\nFive ml of hexane was then added and the mixture was vortexed together for one min. and centrifuged for 4 minutes. Four ml of the upper organic layer was then pipetted. Fifty μl of hexane/isoamyl alcohol was used for reconstitution.\nFlurazepam in plasma was assayed by a Hewlett Packard model 5830A GC-EC. […] The temperatures for column, injector port and detector were 250°, 310° and 310° C., respectively. The flow rate for argon/methane (95:5) gas was 33 ml/min."}, "[2]": {"tested_on": "Wistar rats", "experiment": "Oral versus nasal hypnotic efficacy in rats (duration of sleeping time, loss and reappearance of the righting reflex)", "format": "in vivo", "experimental": "A variety of hypnotics including chloral hydrate, sodium pentobarbital and flurazepam were administered to Wistar rats to compare the efficacy of oral and nasal administration.\nOral Administration Studies: The subjects were fasted for approximately 18 hours; water was available ab libitum. Aqueous solutions of chloral hydrate obtained from Sigma Chemical Co., Ltd. and sodium pentobarbital were separately administered to groups of the subject rats using a constant dose volume of […]. Different dosage levels were obtained by varying the aqueous concentrations of therapeutic drug to identify an effective amount of hypnotic.\nThe animals were then placed in a constant temperature environment of 32° C. The duration of sleeping time (measured by the loss and reappearance of the righting reflex) was recorded for each animal. The results within each group were then averaged.\nNasal Administration Studies: The methodology of the oral studies was repeated with substitution of nasal administration of aqueous solutions through a fine catheter inserted into the nostril. The therapeutic drug was dosed at a constant volume of 50 μl which would deliver an amount of the hypnotic which would be orally effective."}, "[3]": {"details": "nasal spray, 12.1-14.5 mg as HCl, individual dog"}}, "note": "Several values for one entry are separate records, joined by “and”; a condition that tells them apart may be missing. Equal entries are not always repeated. Where two headings read alike, the source gives them in different places.", "data": [{"smiles": "CCN(CC)CCN1C(=O)CN=C(c2ccccc2F)c2cc(Cl)ccc21", "note": "[flurazepam]", "values": [{"measurement": "Tmax", "setting": "[1]; dog, plasma, nasal spray, 12.1-14.5 mg as HCl, individual dog, read-out: TMAX NASAL (converted)", "result": 15, "unit": "min"}, {"measurement": "Cmax", "setting": "[1]; dog, plasma, nasal spray, 12.1-14.5 mg as HCl, mean of four dogs, read-out: CMAX NASAL (MEAN)", "result": 73.3, "unit": "ng/mL"}, {"measurement": "half-life", "setting": "[1]; dog, plasma, nasal spray, 12.1-14.5 mg as HCl, mean of four dogs, read-out: T1/2 NASAL (MEAN)", "result": 168, "unit": "min"}, {"measurement": "Tmax", "setting": "[1]; dog, plasma, nasal spray, 12.1-14.5 mg as HCl, mean of four dogs, read-out: TMAX NASAL (MEAN) (converted)", "result": 15, "unit": "min"}, {"measurement": "Cmax", "setting": "[1]; dog, plasma, po, 15 mg, oral, 15 mg flurazepam HCl, mean of four dogs, head marked *, read-out: CMAX PO (MEAN)", "result": 4.97, "unit": "ng/mL"}, {"measurement": "Tmax", "setting": "[1]; dog, plasma, po, 15 mg, oral, 15 mg flurazepam HCl, mean of four dogs, read-out: TMAX PO (MEAN) (converted)", "result": 26.3, "unit": "min"}, {"measurement": "Tmax after nasal administration relative to oral route", "setting": "[1]; dogs, nasal vs oral", "result": "half that of oral route"}, {"measurement": "Plasma levels after nasal administration compared with oral", "setting": "[1]; dogs, nasal vs oral, dose-corrected, FIG. 3", "result": "consistently higher"}, {"measurement": "Mean increase in AUC after nasal administration", "setting": "[1]; dogs, nasal vs oral, dose-normalized", "result": 51, "unit": "fold"}, {"measurement": "Cmax after oral administration lower than that of nasal route", "setting": "[1]; dogs, oral vs nasal", "result": 15, "unit": "times"}, {"measurement": "AUC NASAL", "setting": "[1]; nasal spray, 12.1-14.5 mg as HCl, dose-normalized, individual dog", "result": "922.3 ngmin/ml-mg and 384.9 ngmin/ml-mg and 287.4 ngmin/ml-mg and 314.9 ngmin/ml-mg"}, {"measurement": "AUC NASAL (MEAN)", "setting": "[1]; nasal spray, 12.1-14.5 mg as HCl, dose-normalized, mean of four dogs", "result": 477.4, "unit": "ngmin/ml-mg"}, {"measurement": "CMAX NASAL", "setting": "[1]; [3]", "result": "161.5 ng/mL and 41.1 ng/mL and 31.5 ng/mL and 59.0 ng/mL"}, {"measurement": "T1/2 NASAL", "setting": "[1]; [3]", "result": "214.7 min and 190.8 min and 163.3 min and 102.6 min"}, {"measurement": "AUC PO", "setting": "[1]; oral, 15 mg flurazepam HCl, dose-normalized, estimated up to last data point, individual dog", "result": "8.60 ngmin/ml-mg and 19.30 ngmin/ml-mg and 4.81 ngmin/ml-mg and 20.00 ngmin/ml-mg"}, {"measurement": "AUC PO (MEAN)", "setting": "[1]; oral, 15 mg flurazepam HCl, dose-normalized, estimated up to last data point, mean of four dogs", "result": 13.20, "unit": "ngmin/ml-mg"}, {"measurement": "TMAX PO", "setting": "[1]; oral, 15 mg flurazepam HCl, individual dog", "result": "45.0 min and 30.0 min"}, {"measurement": "Hypnotic efficacy by oral administration", "setting": "[2]", "result": "the rats proved resistant"}]}]}
